Measurements: patent publication US8247380B2, “Alpha 1-acid glycoprotein, alpha 2-HS glycoprotein, alpha 1-antitrypsin, and fragments thereof induce apoptosis in cancer cell lines” (Ambryx Biotechnology, D.C., priority 1997, dated 2012)
“Also recorded” adds a separate entry of the source.

Key:
[1] = tested on: LNCaP (prostate cancer) cells; assay: Cell death (apoptosis) assay, LNCaP cells; type: cell-based, human; conditions: for induced apoptosis: 4 hours; for apoptotic activity relative to fetuin prepared by other methods, later conservative estimate: conservatively estimated
Method: […] The free Zinc Acetate and Barium Acetate were removed by repetitive concentration. Fetuin was tested in LNCaP and HL-60 cells. […] Fetuin (in 10 μl PBS) at concentration of 100 ng/ml was added 3-4 hours after the cells were seeded.

[2] = tested on: HL-60 (leukemia) cells; assay: Cell death (apoptosis) assay, HL-60 cells; type: cell-based, human; conditions: for apoptotic activity, panel of cell lines (in words): peptide fragment: 6 hours
Method: Fetuin purified from fetal bovine serum by the procedure described above was dissolved in phosphate buffer saline (PBS). The free Zinc Acetate and Barium Acetate were removed by repetitive concentration. Fetuin was tested in LNCaP and HL-60 cells. […] Fetuin (in 10 μl PBS) at concentration of 100 ng/ml was added 3-4 hours after the cells were seeded.

[3] = tested on: Calu-1 (human lung carcinoma); assay: Apoptosis assay, Calu-1 cells; type: cell-based; conditions: for apoptotic activity, panel of cell lines (in words): peptide fragment: 6 hours
[4] = tested on: CCD-18 Co (human normal colon fibroblast); assay: Apoptosis assay, CCD-18 Co cells; type: cell-based; conditions: for apoptotic activity, panel of cell lines (in words): peptide fragment: 6 hours
Text: Zinc charged alpha 1-acid glycoprotein has no effect on CCD 18Co cells (human normal colon fibroblast).

[5] = tested on: p3HR-1 (human Burkitt lymphoma); assay: Apoptosis assay, p3HR-1 cells; type: cell-based; conditions: peptide fragment: 6 hours
[6] = tested on: CCD25 Lu (human normal lung); assay: Apoptosis assay, CCD25 Lu cells; type: cell-based; conditions: peptide fragment: 6 hours
[7] = tested on: Hs578 Bst (human normal breast); assay: Apoptosis assay, Hs578 Bst cells; type: cell-based; conditions: peptide fragment: 6 hours
[8] = tested on: cancer cell lines; assay: Apoptosis assay, cancer cells (cell line not given); type: cell-based; conditions: cancer cells
[9] = tested on: HT-29 (human colon adenocarcinoma); assay: Apoptosis assay, HT-29 cells; conditions: for apoptotic activity, panel of cell lines (in words): peptide fragment: 6 hours
Method: Prostate cancer cell line LNCAP was routinely used for the isolation of Apogen P-1 and Apogen P-2, whereas leukemia cell line HL-60 was used for the isolation of Apogen L. The methods of assays were as follows: LNCAP or HL-60 (1,000 cells) was seeded in 10 microliters RPMI containing 15% or 20% Fetal bovine serum, penicillin and streptomycin at 37 degrees, 5% CO2 in Microtray plates (25 μl wells, Robbins Scientific Corp.). The tested sample (10 μl) was added 3-4 hours after cells were seeded. After incubation of the tested sample with cells for 15 hours, two microliters of Hoechst dye (0.03 ng/ml in PBS) was added. Two hours later, cells that were stained with Hoechst dye were examined under fluorescence microscope. […] The percentage of apoptotic cells was calculated by the following equation:
The DNA condensation, DNA fragmentation and peripheral crescents of the nuclei are characteristics of a cell under apoptosis.

[10] = tested on: Hep G2 (Human hepatoma); assay: Apoptosis assay, Hep G2 cells
[11] = tested on: CCD 39 Lu (normal lung fibroblast); assay: Apoptosis assay, CCD 39 Lu cells; type: cell-based, human
[12] = tested on: MCF-7 (breast cancer) cells; assay: Apoptosis assay, MCF-7 cells; type: cell-based
[13] = tested on: PC-3 (prostate cancer); assay: Apoptosis assay, PC-3 cells; type: cell-based; conditions: 50 μg/ml
[14] = tested on: Colo 205 (colon cancer); assay: Apoptosis assay, Colo 205 cells; type: cell-based; conditions: 50 μg/ml
Method: The tested sample (10 μl) was added 3-4 hours after cells were seeded. After incubation of the tested sample with cells for 15 hours, two microliters of Hoechst dye (0.03 ng/ml in PBS) was added. Two hours later, cells that were stained with Hoechst dye were examined under fluorescence microscope. […] The percentage of apoptotic cells was calculated by the following equation:

[15] = 100 ng/ml in PBS, 15 hours, Hoechst dye

Molecule: zinc charged alpha 1-acid glycoprotein: alpha 1-acid glycoprotein from adult human serum, EDTA treated and charged with zinc acetate
- apoptotic activity, panel of cell lines (in words) [1]: apoptotic activity was present
- apoptotic activity, panel of cell lines (in words) [2]: apoptotic activity was present
- apoptotic activity, panel of cell lines (in words) [3]: apoptotic activity was present
- cell death (in words) ([4]; 5 μM, six hours): did not cause cell death
- apoptotic activity, panel of cell lines (in words) [4]: no activity was present
- apoptotic activity, panel of cell lines (in words) [5]: apoptotic activity was present
- apoptotic activity, panel of cell lines (in words) [6]: no activity was present; also recorded: no effect was seen
- apoptotic activity, panel of cell lines (in words) [7]: no activity was present; also recorded: no effect was seen
- concentration at which apoptotic activity was induced (apoptotic threshold) [8]: 0.75 µM
- apoptosis ([9]; 5 μM, 4 hours): 100%
- apoptotic activity / morphology (in words) ([9]; 5 μM, 4 hours): resulted in the condensation and fragmentation of DNA
- apoptotic activity, panel of cell lines (in words) [9]: apoptotic activity was present
- apoptotic activity, panel of cell lines (in words) [10]: apoptotic activity was present
- cell death ([10]; 5 μM, 4 hours): 90%

Molecule: zinc charged alpha 1-antitrypsin: alpha 1-antitrypsin (Sigma), EDTA treated and charged with zinc acetate
- apoptotic activity, panel of cell lines (in words) [1]: induced apoptosis
- apoptotic activity, panel of cell lines (in words) [2]: induced apoptosis
- apoptotic activity, panel of cell lines (in words) [11]: no effect was seen
- apoptotic activity, panel of cell lines (in words) [3]: induced apoptosis
- apoptotic activity, panel of cell lines (in words) [4]: no effect was seen
- apoptotic activity, panel of cell lines (in words) [5]: induced apoptosis
- apoptotic activity, panel of cell lines (in words) [6]: no effect was seen
- apoptotic activity / morphology (in words) ([9]; 5 μM, 4 hours): caused cell shrinkage and membrane blebbing
- apoptotic activity, panel of cell lines (in words) [9]: induced apoptosis

B1: fetuin: bovine fetuin from fetal bovine serum by the modified Spiro method with zinc acetate (Section 4A) (protein, UniProt P12763 19-359, looked up)
Alpha-2-HS-glycoprotein: IPLDPVAGYKEPACDDPDTEQAALAAVDYINKHLPRGYKHTLNQIDSVKVWPRRPTGEVYDIEIDTLETTCHVLDPTPLANCSVRQQTQHAVEGDCDIHVLKQDGQFSVLFTKCDSSPDSAEDVRKLCPDCPLLAPLNDSRVVHAVEVALATFNAESNGSYLQLVEISRAQFVPLPVSVSVEFAVAATDCIAKEVVDPTKCNLLAEKQYGFCKGSVIQKALGGEDVRVTCTLFQTQPVIPQPQPDGAEAEAPSAVPDAAGPTPSAAGPPVASVVVGPSVVAVPLPLHRAHYDLRHTFSGVASVESSSGEAFHVGKTPIVGQPSIPGGPVRLCPGRIRYFKI
modifications: zinc
- apoptosis, nuclear morphology (in words) [1, 15]: showed the characteristics of apoptosis
- induction of apoptosis (in words) ([1]; 25 μg/ml): highly induced apoptosis
- induced apoptosis ([1]; 25 μg/ml): up to 90%
- induction of apoptosis (in words) ([1]; 50 μg/ml): strongly induced apoptosis
- induced apoptosis ([1]; approximately 50 μM): up to 90%
- apoptotic activity relative to fetuin prepared by other methods, later conservative estimate ([1]; listed as Fetuin as prepared in Section 4A): approximately 100 times
- apoptotic activity relative to fetuin prepared by other methods, later conservative estimate ([1]; listed as fetuin as prepared in Section 4A): more than one hundred times greater
- apoptotic activity relative to fetuin prepared by other methods, initial estimate ([1]; initially estimated): more than fifty thousand folds higher; also recorded: more than fifty thousand times higher
- apoptosis, nuclear morphology (in words) [2, 15]: showed the characteristics of apoptosis
- induction of apoptosis (in words) ([2]; 25 μg/ml): highly induced apoptosis
- induction of apoptosis (in words) ([2]; 50 μg/ml): strongly induced apoptosis
- induction of apoptosis (in words) ([12]; 25 μg/ml): highly induced apoptosis
- induction of apoptosis (in words) ([12]; 50 μg/ml): strongly induced apoptosis
- induction of apoptosis (in words) ([11]; 25 μg/ml, 15 hours): inactive in inducing apoptosis
- induction of apoptosis (in words) ([11]; 50 μg/ml): is not affected
- induction of apoptosis (in words) [13]: strongly induced apoptosis
- induction of apoptosis (in words) [14]: strongly induced apoptosis
- induction of apoptosis (in words) ([3]; 50 μg/ml): strongly induced apoptosis
